The source of these data is article PMC7324608 (Scientific Reports, 2020).

Substitutions are numbered along the chain they refer to.

One experiment addresses T1, HpHtrA S164A (Helicobacter pylori, UniProt G2J5T2, S164A).
T1 sequence (G2J5T2 18-475 S164A): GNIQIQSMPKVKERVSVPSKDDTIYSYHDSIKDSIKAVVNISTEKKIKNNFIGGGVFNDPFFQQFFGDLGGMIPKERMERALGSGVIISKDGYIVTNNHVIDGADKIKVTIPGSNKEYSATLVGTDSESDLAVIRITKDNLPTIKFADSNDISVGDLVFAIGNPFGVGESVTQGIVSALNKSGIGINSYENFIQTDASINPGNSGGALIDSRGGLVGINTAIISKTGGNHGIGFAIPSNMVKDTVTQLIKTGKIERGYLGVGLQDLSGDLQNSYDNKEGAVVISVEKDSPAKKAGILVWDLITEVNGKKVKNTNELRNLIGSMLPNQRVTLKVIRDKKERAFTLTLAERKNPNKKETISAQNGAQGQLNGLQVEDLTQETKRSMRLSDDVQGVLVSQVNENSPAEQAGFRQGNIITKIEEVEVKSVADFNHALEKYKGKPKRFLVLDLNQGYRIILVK
The experiment is described as follows: biochemical. As to the method:
(§1) Synthesis of 2-Abz-AQRVAFY(3-NO2)-NH2. The peptide was assembled manually on a 20 µmol scale.
(§2) The side-chain protecting groups were Pbf for Arg, and Trt for Gln. Fmoc deprotection was carried out with 25% piperidine in DMF/NMP (80:20, v/v) for 3 min, and 12.5% piperidine in DMF/NMP (80:20, v/v) for 12 min. The double couplings (2x45 min) were accomplished with the mixture Fmoc-AA-OH/HOBt/HBTU/DIPEA (5:5:4.8:10 equiv.). 2 -Boc-Abz-OH was coupled with the same protocol.
(§3) Afterwards, the peptidyl-resin was treated with 25% piperidine in DMF/NMP (80:20, v/v) (2x12 min) to deacylate the 3-nitro-tyrosine side chain. The peptide was simultaneously cleaved from the resin and deprotected by using the mixture TFA/H2O/TIA/EDT/TIS (90:3:1:3:3; Vtot = 1 ml) for about 3 h, precipitated from ice-cold diethyl ether, recovered by centrifugation at 4 °C for 6 min, washed four times with ice-cold diethyl ether, and dried in vacuo. The solid was dissolved in water and lyophilized.
(§4) Microscale thermophoresis .
(§5) D168A, MicroScale Thermophoresis (MST) analysis was performed using the Monolith NT.115 (NanoTemper Technologies). HpHtrA proteases were labeled with red fluorescent dye NT -650-NHS (amine reactive) according to the manufacturer’s protocol. Remaining free dye was removed by buffer exchange column chromatography and proteins were eluted in 50 mM Tris pH 7.4, 150 mM NaCl, 0.04% Tween. 5 nM of labelled HpHtrA was incubated for 15 minutes at RT with decreasing […]
(§6) Measurement was performed with premium treated capillaries (NanoTemper Technologies) and the Monolith NT.115 Microscale Thermophoresis device. Data analysis was performed with MO.Affinity Analysis v2.3 (NanoTemper Technologies) and GraphPad Prism Software (Version 8.0.2). Three independent experiments were […]

For the next experiment, the target named is T2, HpHtrA wt (Helicobacter pylori, UniProt G2J5T2).
T2 sequence (G2J5T2 18-475): T1 sequence (G2J5T2 18-475 S164A) with A147S
The experiment can be described thus: biochemical. As to the method:
as §1, §2, §3, §4, §5, §6

The target of the next experiment is T3, HpHtrA S166A (Helicobacter pylori, UniProt G2J5T2, S166A).
T3 sequence (G2J5T2 18-475 S166A): T1 sequence (G2J5T2 18-475 S164A) with A147S, S149A
The settings on record: MST. As to the method: as §1, §2, §3, §4, §5, §6

As usually defined, the Kd is the constant that tells how readily two partners part at equilibrium. Read a high Kd as a looser complex. For `[Zn+2]` [Zn^++, ZnCl2], the Kd on HpHtrA S164A came out at 55 ± 34 µM; at HpHtrA wt, 23 ± 12 µM. The Response amplitude on HpHtrA S164A (MST, 5 nM labelled HpHtrA S164A) turned out to be 3.6; on HpHtrA wt (MST, 5 nM labelled HpHtrA wt, ZnCl2 1 mM - 30.5 nM), 4.3; at HpHtrA S166A it was 3.9. In addition, the “S/N (signal to noise ratio)” value at HpHtrA S164A (MST, HpHtrA S164A) turned out to be 6.0; on HpHtrA wt (MST, HpHtrA wt) it was 6.3.
